Test results as given in patent US20240317727A1 (Duke University, priority 2018, published 2024).
Where two headings read alike, the source gives them in different places.

Legend:
[1] = target: T1, purified recombinant human HSF1 (HSF1 DNA binding domain) (Homo sapiens, UniProt Q00613); assay: Melting temperature of HSF1 DBD with HSF1 degrader compounds (Sypro orange); details: read-out: ΔTm (° C.)
T1 sequence (Q00613 15-120): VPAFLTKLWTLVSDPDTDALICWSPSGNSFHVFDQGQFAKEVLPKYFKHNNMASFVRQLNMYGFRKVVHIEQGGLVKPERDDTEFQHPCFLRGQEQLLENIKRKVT
Description: The melting temperature (ΔTm) for purified recombinant human HSF1 (HSF1 DNA binding domain) was determined in the presence of HSF1 degrader compounds shown in Table 5 and compared to the solvent DMSO. Sypro orange dye was added to the HSF1 DBD (5 micromolar final concentration) in buffer, mixed and distributed to wells in 384 well microtiter plates. HSF1 degrader compound (12.5 micromolar) or DMSO solvent was added to three replicate wells per compound concentration, mixed and plates loaded into a Quant Studio thermnocycler and run on a temperature gradient from 25° C. to 85° C. with increments of 0.5° C. steps. Melting curves were obtained and analyzed using the ThermnoFisher Shift Software 1.4 fitted with a Boltzmann equation to determine the change in melting temperature of the protein in the presence of DMSO as compared to compound. The difference in the melting temperature under these two conditions was assigned as the change in melting temperature of ΔTm.

[2] = Rat liver microsome stability; format: in vitro ADME; details: rat liver microsomes, 37° C., read-out: Microsome Stability T1/2
Description: Next, the microsome stability in rats was determined for select compounds from Table 5. Test compounds are incubated with rat liver microsomes supplemented with co-factors at 37° C. Typical conditions were a compound concentration of 1 μM and 5 sampling time-points (0, 5, 15, 30 and 45 minutes), in duplicate. At each time-point, the reactions were terminated by the addition of organic solvent. The samples were centrifuged and the parent compound concentration was evaluated by LC-MS/MS measurements. Control compounds were included with well-established stability when incubated with rat microsomes. Multiple time points were used to determine % parent compound remaining at each time point and to calculate the Tiu2 for each compound in rat liver microsomes. A higher T1/2 indicates increased compound stability in microsomes.

[3] = system: C4-2 prostate cancer cells; assay: C4-2 cell proliferation, Cell Titre Glo; format: cell-based; details: Homo sapiens, 48-hour period, 9-point dilution series, read-out: Cell Viability IC50
Description: Next, cell viability of C4-2 prostate cancer cells was determined. C4-2 prostate cancer cells were grown in RMPI-1640 (no L-glutamine, Gibco 21870076) supplemented with 10% fetal bovine […] (non-heat-inactivated, Cytiva Hyclone SH30071.03). […] A 9-point dilution series was used to assess the ability of each compound to inhibit the growth of C4-2 prostate cancer cells over a 48-hour period, as compared to negative control solvent, DMSO. Cell proliferation was measured by the Cell Titre Glo assay using 384 well microtiter plate reader to quantitate luminescence. The IC50 was determined from the values obtained.

[4] = target: recombinant protein Hsc70 (Homo sapiens, UniProt P11142); assay: Thermal denaturation of Hsc70 (selectivity); details: selectivity in binding, FIG. 2
[5] = target: T2, recombinant HSF1 DNA-binding domain (DBD) (Homo sapiens, UniProt Q00613); assay: Differential Scanning Fluorimetry (DSF), HSF1 DBD melting temperature; details: for ΔTm at 25 µM: 5 μM HSF1 DBD, 25PM Compound, positive = stabilizes, negative = destabilizes HSF1; for effect on melting temperature of HSF1: thermal denaturation profiling, FIG. 2
T2 sequence (Q00613 15-120): T1 sequence (Q00613 15-120)

Hsp70 = assay: HSF1 target gene transcript expression qPCR in C4-2 cells, Hsp70; format: cell-based; details: Homo sapiens, 2 hours then SNX-2112 (100 nM) 5 hr, vs GAPDH and DMSO
Description: (§1) Next, the change in heat shock protein gene expression in C4-2 prostate cancer cells was determined. C4-2 prostate cancer cells were grown in RMPI-1640 (no L-glutamine, Gibco 21870076) supplemented with 10% fetal bovine […] (non-heat-inactivated, Cytiva Hyclone SH30071.03). To quantitatively measure the inhibition of HSF1 activity in C4-2 prostate cancer cells, compounds or DMSO were added to triplicate C4-2 cell cultures for 2 hours. HSF1 activity was then stimulated with the Hsp90 inhibitor SNX-2112 (100 nM) for an additional 5 hr at 37° C. in the presence of HSF1 degrader compounds or DMSO. Total RNA was extracted, converted to cDNA and used in qPCR assays to quantify the change in HSF1 target gene transcript expression (HSPA4L equals Hsp70, HSPB1 equals Hsp27 and DNAJB1 equals Hsp40) as compared to GAPDH internal control gene, and then compared to DMSO negative control.

DNAJB1 equals Hsp40 = assay: HSF1 target gene transcript expression qPCR in C4-2 cells, Hsp40; format: cell-based; details: Homo sapiens, 2 hours then SNX-2112 (100 nM) 5 hr, vs GAPDH and DMSO
Description: as §1

[6] = system: C4-2 malignant prostate cancer cells vs BPH-1 non-tumorigenic prostate cells; assay: AlamarBlue cell viability, C4-2 vs BPH-1; format: cell-based, human; details: FIG. 6A; for viability of C4-2 compared to BPH-1: 96 hours, AlamarBlue assay; for potency compared to Compound 0017: inhibition of metastatic prostate cancer cell growth
Description: The cells were treated for 96 hours with the indicated concentrations of the compounds of the disclosure and cell viability was measured with the AlamarBlue assay. FIG. 6B illustrates the results of Compound 0017 used in a 7-week Maximal Tolerated Dose (MTD) study conducted in mice (3 mice identified as 118, 119 and 120). […] After sacrificing the mice on the last day of the administration, mouse liver and heart tissue was isolated, messenger RNA extracted and the transcript abundance of the HSF1 target gene, Hsp70, was evaluated by qRT-PCR relative to the internal RNA control, GAPDH. The results of the vehicle-treated versus Compound 0017-treated experiments were compared.
Based on the chemical structure of Compound 0017 and its activity, and of other HSF1-interacting chemicals identified in the screen, additional derivatives were designed, synthesized and evaluated for binding to HSF1 and preferential inhibition of metastatic prostate cancer cells (C4-2) versus benign prostate cells (BPH-1).

[7] = 12.5 micromolar compound, 5 micromolar HSF1 DBD, compared to DMSO

Chain of recombinant protein Hsc70 (P11142 whole entry, species assumed, the tested form may be a part): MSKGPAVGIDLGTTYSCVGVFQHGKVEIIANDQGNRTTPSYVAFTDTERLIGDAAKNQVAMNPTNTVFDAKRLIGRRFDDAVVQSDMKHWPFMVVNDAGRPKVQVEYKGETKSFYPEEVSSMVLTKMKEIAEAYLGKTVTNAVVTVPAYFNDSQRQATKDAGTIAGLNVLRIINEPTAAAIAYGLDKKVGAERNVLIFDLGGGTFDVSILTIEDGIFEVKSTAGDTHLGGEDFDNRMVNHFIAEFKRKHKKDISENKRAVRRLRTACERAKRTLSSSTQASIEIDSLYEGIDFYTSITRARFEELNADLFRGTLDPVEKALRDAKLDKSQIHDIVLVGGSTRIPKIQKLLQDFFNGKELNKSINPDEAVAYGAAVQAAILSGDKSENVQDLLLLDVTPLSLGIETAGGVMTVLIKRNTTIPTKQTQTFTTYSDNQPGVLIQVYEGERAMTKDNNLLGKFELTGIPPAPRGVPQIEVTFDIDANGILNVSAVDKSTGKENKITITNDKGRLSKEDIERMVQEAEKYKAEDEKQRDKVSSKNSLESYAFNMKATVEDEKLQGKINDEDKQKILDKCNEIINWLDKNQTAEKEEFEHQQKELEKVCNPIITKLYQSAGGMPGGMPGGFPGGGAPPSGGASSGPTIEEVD

SMILES | ΔTm at 12.5 µM [1, 7] [°C] | half-life at 1 μM [2] [h] | IC50 [3] [nM] | mrna remaining at 10 µM (Hsp70) [%] | mrna remaining at 10 µM (DNAJB1 equals Hsp40) [%] | also measured
N#Cc1ccc(NC(=O)Nc2ccc3c(c2)S(=O)(=O)C=C3)cc1 [Compound 244, 1-(4-cyanophenyl)-3-(1,1-dioxidobenzo[b]thiophen-6-yl)urea] | 2.11 | 2.58 | 2190 | – | – | –
O=C(Nc1ccc(F)cc1)Nc1ccc(Br)c(C(F)(F)F)c1 [Compound 0005, 1-(4-bromo-3-(trifluoromethyl)phenyl)-3-(4-fluorophenyl)urea] | – | – | – | – | – | effect on melting of unrelated protein Hsc70 [4]: did not affect the melting; ΔTm at 25 µM ([5]; Table 1): 5.1 °C; effect on melting temperature of HSF1 [5]: stabilized the melting temperature of HSF1
N#Cc1ccc(NC(=O)Nc2ccc(Cl)c(C(F)(F)F)c2)cc1C(F)(F)F [Compound 258, 1-(4-chloro-3-(trifluoromethyl)phenyl)-3-(4-cyano-3-(trifluoromethyl)phenyl)urea] | 2.26 | 10.6 | 1660 | 60 | 65 | –
COc1cc(NC(=O)Nc2ccc(Cl)c(C(F)(F)F)c2)ccc1C#N [Compound 247, 1-(4-chloro-3-(trifluoromethyl)phenyl)-3-(4-cyano-3-methoxyphenyl)urea] | 2.8 | – | 2400 | 63 | 73 | –
O=C(Nc1ccc(F)cc1)Nc1ccc(Cl)c([N+](=O)[O-])c1 [Compound 17, 1-(4-chloro-3-nitrophenyl)-3-(4-fluorophenyl)urea] | 3.69 | 1.54 | 5610 | 30.4 | 23.6 | –
N#Cc1ccc(NC(=O)Nc2ccc3nsnc3c2)cc1 [Compound 245, 1-(benzo[c][1,2,5]thiadiazol-5-yl)-3-(4-cyanophenyl)urea] | 2.74 | – | > 10000 | 36 | 39 | –
O=C(Nc1ccc(F)cc1)Nc1ccc(Cl)c(S(=O)(=O)C(F)(F)F)c1 [Compound 54, 1-[4-chloro-3-(trifluoromethylsulfonyl)phenyl]-3-(4-fluorophenyl)urea] | 2.1 | – | 3180 | 23 | 37 | –
N#Cc1ccc(NC(=O)Nc2ccc3c(c2)S(=O)(=O)C=C3)cc1C(F)(F)F [Compound 256, 1-(4-cyano-3-(trifluoromethyl)phenyl)-3-(1,1-dioxidobenzo[b]thiophen-6-yl)urea] | 1.9 | 1.23 | 3470 | – | – | –
N#Cc1ccc(NC(=O)Nc2ccc(Cl)c(C(F)(F)F)c2)cc1 [Compound 242, 1-(4-chloro-3-(trifluoromethyl)phenyl)-3-(4-cyanophenyl)urea] | 2.62 | 14.9 | 1980 | 55 | 71 | –
O=C(Nc1ccc(Cl)cc1)Nc1csc([N+](=O)[O-])c1 [Compound 0009] | – | – | – | – | – | effect on melting of unrelated protein Hsc70 [4]: did not affect the melting; ΔTm at 25 µM ([5]; Table 1): 4.1 °C; effect on melting temperature of HSF1 [5]: stabilized the melting temperature of HSF1
N#Cc1ccc(NC(=O)Nc2ccc3c(c2)S(=O)(=O)C=C3)cn1 [Compound 265, 1-(6-cyanopyridin-3-yl)-3-(1,1-dioxidobenzo[b]thiophen-6-yl)urea] | 0.84 | – | 9690 | 88 | 77 | –
N#Cc1ccc(NC(=O)Nc2ccc(Cl)c(S(=O)(=O)C(F)(F)F)c2)cc1 [Compound 243, 1-(4-chloro-3-((trifluoromethyl)sulfonyl)phenyl)-3-(4-cyanophenyl)urea] | 1.77 | 2.56 | 1760 | 38.5 | 39.5 | –
N#Cc1ccc(NC(=O)Nc2ccc(Cl)c(S(=O)(=O)C(F)(F)F)c2)cc1C(F)(F)F [Compound 257, 1-(4-chloro-3-((trifluoromethyl)sulfonyl)phenyl)-3-(4-cyano-3-(trifluoromethyl)phenyl)urea] | 1.62 | 6.16 | 2150 | 20 | 7 | –
O=C(Nc1ccc(F)cc1)Nc1ccc(Cl)c(S(=O)(=O)C(F)(F)F)c1 [Compound 0054, 1-[4-chloro-3-(trifluoromethylsulfonyl)phenyl]-3-(4-fluorophenyl)urea] | – | – | – | – | – | viability of C4-2 compared to BPH-1 [6]: preferentially inhibit the viability; potency compared to Compound 0017 [6]: increased potency compared to Compound 0017; ΔTm at 25 µM ([5]; Table 1): 2.9 °C
N#Cc1ccc(NC(=O)Nc2ccc3c(c2)S(=O)(=O)C=C3)nc1 [Compound 266, 1-(5-cyanopyridin-2-yl)-3-(1,1-dioxidobenzo[b]thiophen-6-yl)urea] | -0.64 | – | 810 | 83 | 93 | –
N#Cc1ccc(NC(=O)Nc2ccc(CCN3CCOCC3)c(S(=O)(=O)C(F)(F)F)c2)cc1 [Compound 289, 1-(4-cyanophenyl)-3-(4-(2-morpholinoethyl)-3-((trifluoromethyl)-sulfonyl)phenyl)urea] | 2.6 | – | 8910 | – | – | ΔTm at 25 µM ([5]; Table 3): 3.2 °C
N#Cc1ccc(NC(=O)Nc2ccc(Cl)c(S(=O)(=O)C(F)(F)F)c2)c(CN2CCOCC2)c1 [Compound 297, 1-(4-chloro-3-((trifluoromethyl)sulfonyl)phenyl)-3-(4-cyano-2-(morpholinomethyl)phenyl)urea] | 1.1 | – | > 10000 | – | – | ΔTm at 25 µM ([5]; Table 3): 2.08 °C
N#Cc1ccc(NC(=O)Nc2ccc3c(c2)S(=O)(=O)C=C3)cc1CN1CCOCC1 [Compound 291, 1-(4-cyano-3-(morpholinomethyl)phenyl)-3-(1,1-dioxidobenzo[b]thiophen-6-yl)urea] | – | – | > 10000 | – | – | ΔTm at 12.5 µM [1]: -0.44 °C; ΔTm at 25 µM ([5]; Table 3): -4.4 °C
O=c1c(Nc2ccc(F)cc2)c(Nc2ccc(Cl)c(C(F)(F)F)c2)c1=O [Compound 0064, 3-[4-chloro-3-(trifluoromethyl)anilino]-4-(4-fluoroanilino)cyclobut-3-ene-1,2-dione] | – | – | – | – | – | viability of C4-2 compared to BPH-1 [6]: preferentially inhibit the viability; potency compared to Compound 0017 [6]: increased potency compared to Compound 0017; ΔTm at 25 µM ([5]; Table 1): 2.3 °C
